What was measured:
Kir4.1 = biological target: T1, Kir4.1 (Homo sapiens, UniProt P78508); test: Tl+ flux assay, mammalian Kir4.1; format: cell-based
T1 construct: expressed in transfected cells
T1 sequence (P78508 1-379): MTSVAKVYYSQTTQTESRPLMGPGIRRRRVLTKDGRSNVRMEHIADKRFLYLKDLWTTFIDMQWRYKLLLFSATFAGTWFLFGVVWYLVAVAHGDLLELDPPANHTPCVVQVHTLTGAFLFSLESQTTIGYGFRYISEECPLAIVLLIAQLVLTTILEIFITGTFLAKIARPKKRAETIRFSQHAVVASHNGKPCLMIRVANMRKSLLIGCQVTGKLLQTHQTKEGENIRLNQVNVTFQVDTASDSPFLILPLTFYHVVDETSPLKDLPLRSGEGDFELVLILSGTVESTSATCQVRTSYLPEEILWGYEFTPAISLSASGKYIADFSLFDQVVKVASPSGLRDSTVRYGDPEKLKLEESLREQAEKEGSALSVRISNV

Kir1.1 = biological target: T2, Kir1.1 (Rattus norvegicus, UniProt P35560); test: Tl+ flux assay, mammalian Kir1.1; format: cell-based; settings: read-out: inhibition of Kir1.1
T2 sequence (P35560 1-391): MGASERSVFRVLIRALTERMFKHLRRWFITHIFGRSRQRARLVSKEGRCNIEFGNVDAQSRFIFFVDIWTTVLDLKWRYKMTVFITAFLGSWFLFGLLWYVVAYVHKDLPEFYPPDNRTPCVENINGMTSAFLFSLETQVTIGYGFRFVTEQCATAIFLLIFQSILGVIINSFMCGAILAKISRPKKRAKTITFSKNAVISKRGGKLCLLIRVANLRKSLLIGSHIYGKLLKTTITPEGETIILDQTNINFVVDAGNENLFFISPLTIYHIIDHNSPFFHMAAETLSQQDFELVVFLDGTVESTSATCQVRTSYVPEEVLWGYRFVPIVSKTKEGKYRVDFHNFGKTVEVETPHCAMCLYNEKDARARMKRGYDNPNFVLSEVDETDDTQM

O=C(Cn1nc(C(F)(F)F)c2c1CCCC2)N1CCCc2ccccc21 [VU041, 1-(3,4-dihydroquinolin-1(2H)-yl)-2-(3-(trifluoromethyl)-4,5,6,7-tetrahydro-1H-indazol-1-yl)ethan-1-one]
inhibition at 30 µM (Kir4.1): < 10%
inhibition at 30 µM (Kir1.1): < 10%

— article PMC5111108, “An insecticide resistance-breaking mosquitocide targeting inward rectifier potassium channels in vectors of Zika virus and malaria” (Scientific Reports, 2016)
